According to ChEMBL document CHEMBL1201862, “PubChem BioAssay data set” (2004):
The source made the active and inactive calls.

How the values were obtained:
[1] = biological target: Protein disulfide-isomerase (Homo sapiens, UniProt P07237); test: inhibition of PDI-driven insulin aggregation – biochemical, turbidity, absorbance, cherry-picked samples, dose response (AID 602350); assay type: functional
Estrogen receptor = biological target: T1, Estrogen receptor (Homo sapiens, UniProt P03372); test: ERα coactivator recruitment enhancers – biochemical, TR-FRET, ERα LBD, dose response (AID 737)
T1 sequence (P03372 whole entry): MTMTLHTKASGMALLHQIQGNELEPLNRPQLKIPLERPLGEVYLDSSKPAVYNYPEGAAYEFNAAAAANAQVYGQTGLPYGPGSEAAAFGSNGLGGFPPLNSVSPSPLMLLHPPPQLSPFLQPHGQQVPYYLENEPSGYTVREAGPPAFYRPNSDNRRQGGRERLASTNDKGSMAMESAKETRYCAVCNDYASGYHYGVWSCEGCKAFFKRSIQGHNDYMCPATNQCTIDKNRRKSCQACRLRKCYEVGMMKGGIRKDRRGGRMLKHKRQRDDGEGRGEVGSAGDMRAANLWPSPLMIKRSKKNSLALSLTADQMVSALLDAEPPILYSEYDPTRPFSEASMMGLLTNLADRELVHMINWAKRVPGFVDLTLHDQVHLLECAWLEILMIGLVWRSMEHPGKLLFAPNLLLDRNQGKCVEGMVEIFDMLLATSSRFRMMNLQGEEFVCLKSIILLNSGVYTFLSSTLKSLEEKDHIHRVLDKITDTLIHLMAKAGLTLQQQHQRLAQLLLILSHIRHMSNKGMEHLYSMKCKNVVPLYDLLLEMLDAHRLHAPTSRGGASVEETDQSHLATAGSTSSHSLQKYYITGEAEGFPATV

[2] = biological target: T2, Heat shock factor protein 1 (Mus musculus, UniProt P38532); test: decrease of HSF1-responsive luciferase luminescence – cell-based, NIH3T3, dose retest, confirmation (AID 2382); assay type: functional;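 also: NIH3T3 fibroblasts with HSF1-driven luciferase reporter stressed by proteasome inhibitor MG132; luminescence from HSF1-driven luciferase expression after 8 hours of MG132 stress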
T2 sequence (P38532 whole entry): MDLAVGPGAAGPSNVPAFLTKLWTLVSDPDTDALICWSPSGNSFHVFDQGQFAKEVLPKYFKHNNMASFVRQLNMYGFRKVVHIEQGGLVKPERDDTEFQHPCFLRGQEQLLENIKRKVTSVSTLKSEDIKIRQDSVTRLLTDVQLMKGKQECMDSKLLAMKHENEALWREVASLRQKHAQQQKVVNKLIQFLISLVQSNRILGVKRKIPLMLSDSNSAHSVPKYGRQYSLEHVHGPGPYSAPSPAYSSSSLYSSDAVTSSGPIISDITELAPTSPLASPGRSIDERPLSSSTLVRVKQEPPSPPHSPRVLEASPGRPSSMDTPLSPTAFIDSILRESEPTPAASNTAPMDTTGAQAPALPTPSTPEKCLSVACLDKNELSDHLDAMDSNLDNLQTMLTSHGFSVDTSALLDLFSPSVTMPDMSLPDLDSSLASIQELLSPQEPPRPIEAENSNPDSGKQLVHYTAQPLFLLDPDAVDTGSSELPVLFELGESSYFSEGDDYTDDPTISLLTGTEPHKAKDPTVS

[3] = HEK-293T viability loss after treatment – luminescence, T-cell screen hits, cytotoxicity control for TCR NF-kB inhibitor project, dose response (AID 489026); assay type: functional, cell-based;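 also: cells exposed to compound about 14 hours before the viability readout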
[4] = blockade of melanocortin 4 receptor signaling – cell-based, plate reader, cherry pick, counter-screen for LGR2 antagonist project, dose response (AID 743444); assay type: functional;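 also: transfected HEK 293 cells stimulated with alpha-MSH peptide; potency of inhibitors of the alpha-MSH evoked signal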
H4 [5] = test: inhibitors of control reporter signal in H4 cells – cell-based, plate reader, dry powder samples, counter-screen for prion reporter project, dose response (AID 540255); assay type: functional; conditions: Homo sapiens
[6] = viability loss in HEK293 cells – cell-based, plate reader, cherry-picked samples, cytotoxicity control, dose response (AID 743446); assay type: functional
[7] = Shn3 3'UTR reporter signal decrease – cell-based, Clone20 osteoblasts, firefly luciferase, cherry-pick, set 2, Schnurri-3 inhibitor project, dose response (AID 720490); assay type: functional;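 also: actives lower the luminescence signal as inhibitors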
[8] = blockers of bursicon-stimulated LGR2 cAMP reporter – cell-based, HEK293, CRE-luciferase reporter, cherry pick, set 2, dose response (AID 743343); assay type: functional;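 also: transfected cells were stimulated with diluted bursicon conditioned medium after compound addition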
[9] = alpha-synuclein stem-loop luciferase translation blockers – H4 neuroglioma cells, luminescence, confirmation (AID 1988); assay type: functional, cell-based
[10] = luciferase reporter signal suppression in cells – H4 neuroglioma cells, luminescence, dose response (AID 1990); assay type: functional, cell-based
H4 [11] = test: Inhibitors of Prion Protein 5' UTR mRNA Measured in Cell-Based System Using Plate Reader - 2078-01_Inhibitor_Dose_DryPowder_Activity. [Related pubchem assays (depositor defined):AID488894]; assay type: functional; conditions: Homo sapiens
[12] = A549 cell cytotoxicity, dose response, cytotoxicity control, plate reader, cherry-pick, antagonist series (AID 743412); assay type: functional, cell-based
[13] = viability loss in CEM21 cells – cell-based, CellTiter-Glo luminescence, cherry-picked, cytotoxicity control for viral fusion inhibitor project, dose response (AID 652042); assay type: functional;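 also: potency for signal decrease meaning cytotoxicity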
[14] = reduction of Shn3 3'UTR-driven luciferase in osteoblasts – cell-based, Clone20 osteoblasts, firefly luciferase, cherry-picked, dose response (AID 624132); assay type: functional;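 also: firefly luciferase luminescence from reporter carrying the Shn3 3'UTR in osteoblasts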
H4 [15] = test: Amyloid Precursor 5' UTR neuroblastoma cell reporter line Measured in Cell-Based System Using Plate Reader - 2078-04_Inhibitor_Dose_DryPowder_Activity. [Related pubchem assays (depositor defined):AID488894]; assay type: functional; conditions: Homo sapiens
[16] = toxicity toward HepG2 liver cells – cell-based, plate reader, cherry-pick, antagonist series, cytotoxicity control, dose response (AID 743416); assay type: functional
[17] = Luminescence Cell-Based Dose Confirmation HTS to Identify Inhibitors of Platelet Dense Granule Release. [Related pubchem assays: 1663 (Primary HTS), 1678 (Summary of Project)]; assay type: functional
[18] = Luminescence Cell-Based Dose Response HTS to Identify Inhibitors of 5'UTR Stem-Loop Driven Prion Protein mRNA Translation in H4 Neuroglioblastoma Cells. [Related pubchem assays: 1827 (Project Summary), 1813 (Primary HTS)]; assay type: functional
[19] = biological target: T3, Luciferin 4-monooxygenase (Photinus pyralis, UniProt P08659); test: inhibition of purified Photinus pyralis luciferase – biochemical, luminescence, dose response (AID 1891)
T3 sequence (P08659 whole entry, the tested form may be a part): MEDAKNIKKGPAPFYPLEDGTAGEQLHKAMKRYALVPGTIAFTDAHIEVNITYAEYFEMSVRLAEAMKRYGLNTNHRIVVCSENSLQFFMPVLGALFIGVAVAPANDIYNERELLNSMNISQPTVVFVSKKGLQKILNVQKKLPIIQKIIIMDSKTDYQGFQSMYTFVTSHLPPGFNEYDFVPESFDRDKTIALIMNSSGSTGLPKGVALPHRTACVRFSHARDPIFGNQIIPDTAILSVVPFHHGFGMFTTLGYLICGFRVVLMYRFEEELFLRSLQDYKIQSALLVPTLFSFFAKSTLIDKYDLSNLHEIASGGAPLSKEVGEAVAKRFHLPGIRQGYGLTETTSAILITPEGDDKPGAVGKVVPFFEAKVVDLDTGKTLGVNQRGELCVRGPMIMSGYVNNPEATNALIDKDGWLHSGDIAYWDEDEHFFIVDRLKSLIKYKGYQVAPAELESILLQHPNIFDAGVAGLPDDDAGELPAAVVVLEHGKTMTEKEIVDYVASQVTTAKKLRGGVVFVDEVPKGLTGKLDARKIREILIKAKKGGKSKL

[20] = blockers of HIV-1 ZM109 envelope-driven cell-cell fusion – HeLa effector, CEM target cells, luciferase, cherry-pick, dose response (AID 652058); assay type: functional, cell-based;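 also: luciferase signal from HIV-1 Env mediated cell-cell fusion of effector and target cells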
[21] = off-target signal loss in HeLa-CEM21 co-culture – HeLa F-luc CTL cells, cherry-picked, counter-screen for HIV-1 Env fusion inhibitor project, dose response (AID 652040); assay type: functional, cell-based;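 also: potency for signal decrease marking cytotoxic or nonspecific inhibition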
[22] = HIV-1 AD8 envelope cell-cell fusion blockers – cherry-pick, dose response (AID 652062); assay type: functional, cell-based;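 also: luciferase signal from cell-cell fusion driven by HIV-1 clade B AD8 Env; potency is for inhibitors of fusion seen as a drop in luminescence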
[23] = loss of viability in HepG2 cells – cell-based, CellTiter-Glo, cherry-picked, cytotoxicity control for Shn3 inhibitor project, dose response (AID 624134); assay type: functional
[24] = blockers of HIV-1 envelope-mediated cell-cell fusion – cherry-pick, dose response (AID 652057); assay type: functional, cell-based
[25] = biological target: T3, Luciferin 4-monooxygenase; test: inhibition of purified Photinus pyralis luciferase – biochemical, dry powder samples, plate reader, dose response (AID 588451)
HEK293 [26] = test: membrane integrity loss in HEK cells – cell-based, fluorescence, cytotoxicity control for IDE activator project, dose response (AID 588440); assay type: functional; conditions: Homo sapiens;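 also: cytotoxicity by LDH release measuring loss of membrane integrity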
Insulin-degrading enzyme [27] = biological target: T4, Insulin-degrading enzyme (Homo sapiens, UniProt P14735); test: cellular IDE activation of Abeta substrate cleavage – fluorescence polarization, HEK cells, dose response (AID 588439); assay type: functional, cell-based
T4 sequence (P14735 whole entry): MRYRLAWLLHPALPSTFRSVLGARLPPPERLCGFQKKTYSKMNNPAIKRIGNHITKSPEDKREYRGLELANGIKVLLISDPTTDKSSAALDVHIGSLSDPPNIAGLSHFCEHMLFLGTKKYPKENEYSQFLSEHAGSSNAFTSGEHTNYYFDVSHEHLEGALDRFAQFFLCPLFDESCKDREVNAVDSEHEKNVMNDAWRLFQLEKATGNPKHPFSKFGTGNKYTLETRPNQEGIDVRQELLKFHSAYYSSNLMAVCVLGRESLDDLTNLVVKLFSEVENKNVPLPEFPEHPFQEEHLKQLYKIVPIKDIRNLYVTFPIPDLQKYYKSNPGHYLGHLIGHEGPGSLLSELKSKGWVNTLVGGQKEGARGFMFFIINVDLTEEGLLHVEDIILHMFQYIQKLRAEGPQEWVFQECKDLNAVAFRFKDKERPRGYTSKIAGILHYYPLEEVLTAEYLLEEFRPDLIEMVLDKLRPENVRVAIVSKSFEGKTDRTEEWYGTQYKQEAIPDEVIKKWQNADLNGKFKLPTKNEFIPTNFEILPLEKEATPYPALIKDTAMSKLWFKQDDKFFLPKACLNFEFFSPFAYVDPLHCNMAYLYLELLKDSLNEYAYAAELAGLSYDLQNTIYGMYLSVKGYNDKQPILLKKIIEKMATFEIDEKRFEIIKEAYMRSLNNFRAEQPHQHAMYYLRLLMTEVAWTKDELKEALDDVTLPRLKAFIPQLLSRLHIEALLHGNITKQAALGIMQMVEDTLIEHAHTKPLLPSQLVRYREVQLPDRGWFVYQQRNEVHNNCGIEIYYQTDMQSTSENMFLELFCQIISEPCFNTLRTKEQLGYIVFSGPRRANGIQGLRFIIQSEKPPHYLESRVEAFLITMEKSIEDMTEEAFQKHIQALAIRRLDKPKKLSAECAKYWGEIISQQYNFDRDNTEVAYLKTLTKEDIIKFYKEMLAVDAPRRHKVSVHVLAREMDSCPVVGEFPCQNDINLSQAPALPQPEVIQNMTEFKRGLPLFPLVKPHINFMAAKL

Insulin-degrading enzyme [28] = biological target: T4, Insulin-degrading enzyme; test: recombinant IDE activation, cell-free – biochemical, fluorescence polarization, counter-screen for IDE activator project, dose response (AID 588681)
[29] = biological target: FAD-linked sulfhydryl oxidase ALR (Homo sapiens, UniProt P55789); test: ALR-catalysed DTT oxidation blockers – biochemical, H2O2 detection, luminescence, cherry-pick, dose response (AID 493248)
Chain of FAD-linked sulfhydryl oxidase ALR (P55789 whole entry): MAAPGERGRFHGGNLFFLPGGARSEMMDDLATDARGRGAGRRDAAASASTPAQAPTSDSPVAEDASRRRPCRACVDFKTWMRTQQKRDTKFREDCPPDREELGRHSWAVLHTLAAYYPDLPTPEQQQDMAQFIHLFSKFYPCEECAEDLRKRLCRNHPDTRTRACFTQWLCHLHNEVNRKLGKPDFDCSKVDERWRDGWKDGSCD

HEK293 [30] = test: optical interference in Abeta FP readout, dose response, artefact control for IDE activator project, biochemical, fluorescence polarization (AID 588442); assay type: functional, cell-based; conditions: Homo sapiens
Apelin receptor = Apelin receptor (Homo sapiens, UniProt P35414); test: apelin receptor antagonists, arrestin read-out – cell-based, luminescent, enzyme-fragment complementation, selectivity assay for CCR6 antagonist project, SAR follow-up (AID 588359); assay type: functional
Chain of Apelin receptor (P35414 whole entry, the tested form may be a part): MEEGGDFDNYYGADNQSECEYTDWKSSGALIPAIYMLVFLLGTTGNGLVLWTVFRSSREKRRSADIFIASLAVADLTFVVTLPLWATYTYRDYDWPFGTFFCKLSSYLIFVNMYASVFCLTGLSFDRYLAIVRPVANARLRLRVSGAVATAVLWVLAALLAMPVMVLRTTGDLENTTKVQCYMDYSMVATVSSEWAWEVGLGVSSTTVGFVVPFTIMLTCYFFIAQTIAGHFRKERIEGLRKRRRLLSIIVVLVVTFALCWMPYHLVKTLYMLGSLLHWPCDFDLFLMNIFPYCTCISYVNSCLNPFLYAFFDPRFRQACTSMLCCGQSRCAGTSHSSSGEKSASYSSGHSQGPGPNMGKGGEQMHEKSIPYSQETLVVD

[31] = biological target: C-X-C chemokine receptor type 5 (Homo sapiens, UniProt P32302); test: inhibition of CXCL13-driven CXCR5 beta-arrestin recruitment – cell-based, luminescence, CHO-K1 PathHunter, selectivity assay for CCR6 antagonist project, SAR follow-up (AID 540340); assay type: functional
Chain of C-X-C chemokine receptor type 5 (P32302 whole entry): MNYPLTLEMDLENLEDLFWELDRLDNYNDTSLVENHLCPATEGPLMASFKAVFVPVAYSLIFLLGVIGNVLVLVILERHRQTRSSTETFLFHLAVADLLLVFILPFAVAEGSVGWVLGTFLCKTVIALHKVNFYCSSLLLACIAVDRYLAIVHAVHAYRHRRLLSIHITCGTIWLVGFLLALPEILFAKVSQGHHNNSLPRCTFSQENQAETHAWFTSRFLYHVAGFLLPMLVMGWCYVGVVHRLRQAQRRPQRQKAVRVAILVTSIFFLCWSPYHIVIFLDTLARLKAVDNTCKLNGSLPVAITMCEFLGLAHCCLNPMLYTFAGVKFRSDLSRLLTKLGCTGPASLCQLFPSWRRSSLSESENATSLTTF

[32] = biological target: T5, C-C chemokine receptor type 6 (Homo sapiens, UniProt P51684); test: analog antagonism of CCR6 beta-arrestin signaling – cell-based, luminescent beta-arrestin readout, SAR follow-up (AID 540334); assay type: functional
T5 sequence (P51684 whole entry): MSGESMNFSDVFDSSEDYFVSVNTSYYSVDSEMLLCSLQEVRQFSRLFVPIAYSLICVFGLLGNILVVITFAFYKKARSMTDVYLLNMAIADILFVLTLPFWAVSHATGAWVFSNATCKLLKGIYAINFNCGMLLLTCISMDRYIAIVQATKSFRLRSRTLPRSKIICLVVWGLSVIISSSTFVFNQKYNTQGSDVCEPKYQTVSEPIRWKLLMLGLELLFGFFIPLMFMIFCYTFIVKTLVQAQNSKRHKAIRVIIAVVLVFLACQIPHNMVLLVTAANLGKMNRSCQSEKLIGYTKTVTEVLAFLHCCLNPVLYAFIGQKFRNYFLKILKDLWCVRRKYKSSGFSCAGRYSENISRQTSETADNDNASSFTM

[33] = THP-1 cell cytotoxicity, dose response, cytotoxicity control, set 3 (AID 504852); assay type: functional; conditions: Mycobacterium tuberculosis

Chain of Protein disulfide-isomerase (P07237 whole entry, the tested form may be a part): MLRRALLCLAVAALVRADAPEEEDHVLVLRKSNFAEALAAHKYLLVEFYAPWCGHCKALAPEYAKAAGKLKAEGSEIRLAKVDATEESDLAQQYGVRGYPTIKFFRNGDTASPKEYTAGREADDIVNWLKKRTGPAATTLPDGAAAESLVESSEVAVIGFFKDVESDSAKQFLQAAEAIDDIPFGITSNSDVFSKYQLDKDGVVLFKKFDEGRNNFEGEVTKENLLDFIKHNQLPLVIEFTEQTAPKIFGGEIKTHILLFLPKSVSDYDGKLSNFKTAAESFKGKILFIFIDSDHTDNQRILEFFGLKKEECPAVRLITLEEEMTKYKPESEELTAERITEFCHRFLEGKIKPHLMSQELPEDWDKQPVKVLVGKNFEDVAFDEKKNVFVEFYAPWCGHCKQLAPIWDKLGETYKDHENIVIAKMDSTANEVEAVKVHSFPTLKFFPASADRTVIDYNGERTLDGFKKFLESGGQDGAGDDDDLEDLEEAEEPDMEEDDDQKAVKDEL

SMILES: C[C@]12CC[C@@H]3c4ccc(O[C@@H]5O[C@H](C(=O)O)[C@@H](O)[C@H](O)[C@H]5O)cc4CC[C@H]3[C@@H]1C[C@@H](O)[C@@H]2O
- AC50 [1]: 15.7 µM (active)
- EC50 (Estrogen receptor): 9.16 µM (active)
- EC50 [2]: > 195 µM (not active)

SMILES: Cc1c(C)c2ccc(OCC(=O)Nc3ccccn3)c(C)c2oc1=O
- IC50 [3]: > 80 µM (inactive)
- AC50 [4]: < 0.068 µM (active)
- AC50 (H4 [5]): 0.021 µM (active)
- AC50 [6]: 48.7 µM (active)
- AC50 [7]: 1.77 µM (active)
- AC50 [8]: 0.0802 µM (active)
- EC50 [9]: 0.236 µM (active)
- EC50 [10]: 0.36 µM (active)
- AC50 (H4 [11]): 0.027 µM (active)
- AC50 [12]: 33.5 µM (active)
- AC50 [13]: 35 µM (active)
- AC50 [14]: 0.416 µM (active)
- AC50 (H4 [15]): 0.0103 µM (active)
- AC50 [16]: 25.3 µM (active)
- EC50 [17]: 2.73 µM (active)
- EC50 [18]: 0.214 µM (active)
- EC50 [19]: 0.629 µM (active)
- AC50 [20]: 6.61 µM (active)
- AC50 [21]: 1.83 µM (active)
- AC50 [22]: 0.429 µM (active)
- AC50 [23]: 37.1 µM (active)
- AC50 [24]: 1.71 µM (active)
- EC50 [2]: < 0.16 µM (active)
- AC50 [25]: 0.101 µM (active)

SMILES: COc1cccc(CNc2ccc3c(c2)ncn3C(C)C)c1OC
- IC50 (HEK293 [26]): > 89.2 µM (inactive)
- EC50 (Insulin-degrading enzyme [27]): 43.8 µM (inactive)
- EC50 (Insulin-degrading enzyme [28]): > 54.7 µM (inactive)
- AC50 [29]: 2.58 µM (active)
- EC50 (HEK293 [30]): > 55.9 µM (inactive)

SMILES: C/C=C(\C)C(=O)OC1[C@H](OC(C)=O)C2(CO)C(CC1(C)C)C1=CCC3C4(C)CCC(O[C@@H]5O[C@H](C(=O)O)[C@@H](O[C@@H]6O[C@H](CO)[C@@H](O)[C@H](O)[C@H]6O)[C@H](O)[C@H]5O[C@H]5O[C@H](CO)[C@@H](O)[C@H](O)[C@H]5O)[C@](C)(CO)C4CCC3(C)[C@]1(C)C[C@H]2O (stereo partly specified)
- IC50 (Apelin receptor): 9.07 µM (active)
- IC50 [31]: 9.46 µM (inactive)
- IC50 [32]: 7.82 µM (active)

SMILES: CCOC1OC(=O)C(Cl)=C1Nc1ccccc1C (stereo unspecified)
- CC50 [33]: > 100 µM (active)
